The subject of one data set is S. aureus ATCC 25923. Briefly: MIC, broth dilution, S. aureus. It is filed as cell-based, Staphylococcus aureus. The following applies: Staphylococcus aureus, ATCC25923; S. aureus ATCC 25923, 18 h; read-out: MIC Sa.
For another data set, the system named is MRSA ATCC 43300. Put plainly: MIC, broth microdilution (CO-ADD), MRSA. The conditions noted are these: Staphylococcus aureus; MRSA ATCC 43300; top dose 32 µg/mL; read-out: MIC MRSA. It is filed as cell-based, methicillin-resistant S. aureus.
In data set [1] the test system is P. aeruginosa ATCC 27853. Briefly: MIC, broth dilution, P. aeruginosa. It is filed as cell-based, Pseudomonas aeruginosa. The conditions noted are these: Pseudomonas aeruginosa, ATCC27853; P. aeruginosa ATCC 27853, 18 h; read-out: MIC Pa.
Data set [2] concerns E. coli ATCC 25922. Put plainly: MIC, broth dilution, E. coli. It is filed as cell-based, Escherichia coli. The conditions noted are these: Escherichia coli, ATCC25922; E. coli ATCC 25922, 18 h. A general note: Broth dilution looks for growth in wells or tubes with falling amounts of substance.
The next data set concerns A. baumannii ATCC 19606. Briefly: MIC, broth microdilution (CO-ADD), A. baumannii. It is filed as cell-based, Acinetobacter baumannii. The conditions noted are these: Acinetobacter baumannii, ATCC19606, top dose 32 µg/mL.
The subject of a further data set is C. albicans ATCC 90028. Briefly: Antifungal MIC (CO-ADD), C. albicans. It is filed as cell-based. The conditions noted are these: Candida albicans, ATCC90028, top dose 32 µg/mL. An outline of the steps:
(§1)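 Yeast inocula prepared from YPD-agar colonies grown 3 days at 30 °C, diluted in YNB broth to 2.5 × 10^3 CFU/mL and incubated 36 h at 35 °C without shaking. C. albicans MIC read at OD530; C. neoformans MIC read at OD570–600 after 3 h with 0.006% resazurin.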

Data set [3] has as its system C. neoformans ATCC 208821. Briefly: Antifungal MIC (CO-ADD), C. neoformans. The following applies: Cryptococcus neoformans, ATCC208821, top dose 32 µg/mL. It is filed as cell-based. A digest of the protocol: as §1
Data set [4] deals with P. aeruginosa ATCC 27853. Put plainly: Doxycycline potentiation against P. aeruginosa. It is filed as cell-based, Pseudomonas aeruginosa. The following applies: doxycycline at 2 µg/mL (4.5 µM); for Dox/Pa fold-change (intrinsic MIC / combination MIC): P. aeruginosa ATCC 27853; for Dox/Pa: concentration required to restore doxycycline activity (combination MIC): P. aeruginosa ATCC 27853, mean n = 3. From the text:
(§2) These measurements were independently repeated in triplicate.

In data set [5] the test system is E. coli ATCC 25922. Briefly: Erythromycin potentiation against E. coli. It is filed as cell-based, Escherichia coli. The conditions noted are these: erythromycin at 2 µg/mL (2.7 µM); for Erythro/Ec fold-change (intrinsic MIC / combination MIC): E. coli; for Erythro/Ec: concentration required to restore erythromycin activity (combination MIC): mean n = 3.
Description: as §2

The nature of data set [6]: Cytotoxicity assay (resazurin). It is filed as cell-based. The following applies: human, HEK293 cells, mean n = 2. In general terms: The colour change of resazurin is a common sign of viable cells or microbes.
In the next data set the test system is human red blood cells. Put plainly: Hemolytic assay. It is filed as cell-based. The following applies: 10% hemolytic activity, mean n = 2. An outline of the steps:
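Washed human erythrocytes (0.5 × 10^8 cells/mL in 0.9% NaCl) were incubated with compounds for 1 h at 37 °C. Haemoglobin release was read as supernatant OD405. HC10 and HC50 came from sigmoidal dose–response fits.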

For data set [7], the system named is K. pneumoniae ATCC 700603. Put plainly: MIC, broth microdilution (CO-ADD), K. pneumoniae. The conditions noted are these: top dose 32 µg/mL.

The values below come from paper PMC10967822, “Antimicrobial Indole-3-Carboxamido-Polyamine Conjugates Target Bacterial Membranes and Are Antibiotic Potentiators” (Biomolecules, 2024).

Molecules are shown by their SMILES. In brackets after ≈: the same amount, converted by molar mass.

A word on the MIC: it is the smallest concentration in the dilution series that meets the test's criterion for growth inhibition. As a reminder, the IC50 is the point on the concentration scale where inhibition reaches its midpoint. Lower therefore signals inhibition by little substance. Take `O=C(NCCCNCCCCCCCCCCCCNCCCNC(=O)c1c[nH]c2c(F)cccc12)c1c[nH]c2c(F)cccc12.O=C(O)C(F)(F)F.O=C(O)C(F)(F)F` [Compound 16f]: the MIC was 231 µM with S. aureus ATCC 25923; not above 0.29 µM in the data set on MRSA ATCC 43300; 116 µM with P. aeruginosa ATCC 27853 [1]; 231 µM in the data set on E. coli ATCC 25922 [2]; more than 37 µM in the data set on A. baumannii ATCC 19606; more than 37 µM in the data set with C. albicans ATCC 90028. In [3], this compound had an MIC not above 0.29 µM. Moreover, the “Dox/Pa fold-change (intrinsic MIC / combination MIC)” value with P. aeruginosa ATCC 27853 [4] was determined as 1 fold. In addition, in the data set on P. aeruginosa ATCC 27853 [4], the “Dox/Pa: concentration required to restore doxycycline activity (combination MIC)” value (“Dox/Pa: concentration required” below) was determined as 116 µM. For the same compound, in the data set with E. coli ATCC 25922 [5], the “Erythro/Ec fold-change (intrinsic MIC / combination MIC)” value worked out at 1 fold. For the same compound, the “Erythro/Ec: concentration required to restore erythromycin activity (combination MIC)” value (“Erythro/Ec: concentration required” below) in the data set with E. coli ATCC 25922 [5] amounted to 231 µM. Besides, in [6], the IC50 at 20 h is more than 37 µM. For the same compound, the “Hemolysis HC10” value in the data set with human red blood cells is more than 37 µM. Moreover, in data set [7], the “MIC Kp” value was more than 37 µM.

`COc1cccc2c(C(=O)NCCCNCCCCCCCNCCCNC(=O)c3c[nH]c4c(OC)cccc34)c[nH]c12.O=C(O)C(F)(F)F.O=C(O)C(F)(F)F` [Compound 17c]: the minimal inhibitory concentration (MIC) with S. aureus ATCC 25923 was 122 µM; in the data set with MRSA ATCC 43300, 2.44 µM; in the data set with P. aeruginosa ATCC 27853 [1], more than 244 µM; against E. coli ATCC 25922 [2], 244 µM; against A. baumannii ATCC 19606 it was more than 39 µM; against C. albicans ATCC 90028, more than 39 µM. In data set [3], this compound gave an MIC not above 0.31 µM. Besides, the “Dox/Pa fold-change (intrinsic MIC / combination MIC)” value in the data set with P. aeruginosa ATCC 27853 [4] is reported as more than 8 fold. Also, in the data set with P. aeruginosa ATCC 27853 [4], the “Dox/Pa: concentration required” value is 30.5 µM. Moreover, the “Erythro/Ec fold-change (intrinsic MIC / combination MIC)” value in the data set with E. coli ATCC 25922 [5] is listed as 1 fold. The “Erythro/Ec: concentration required” value in the data set with E. coli ATCC 25922 [5] amounted to 244 µM. The IC50 at 20 h in [6] was more than 39 µM. Besides, the “Hemolysis HC10” value with human red blood cells was more than 39 µM. Moreover, the “MIC Kp” value in data set [7] was more than 39 µM.

With `COc1cccc2c(C(=O)NCCCNCCCCCCCCNCCCNC(=O)c3c[nH]c4c(OC)cccc34)c[nH]c12` [Compound 17d], the MIC in the data set with S. aureus ATCC 25923 is 120 µM (≈ 72.6 µg/mL); in the data set with MRSA ATCC 43300, not above 0.3 µM; in the data set with P. aeruginosa ATCC 27853 [1] it was more than 240 µM; against E. coli ATCC 25922 [2] it was 240 µM (≈ 145 µg/mL); in the data set on A. baumannii ATCC 19606, more than 38 µM; with C. albicans ATCC 90028 it was more than 38 µM. In data set [3], this compound showed an MIC not above 0.3 µM. Further, in the data set with P. aeruginosa ATCC 27853 [4], the “Dox/Pa fold-change (intrinsic MIC / combination MIC)” value is reported as more than 4 fold. Moreover, the “Dox/Pa: concentration required” value in the data set with P. aeruginosa ATCC 27853 [4] is recorded as 60.0 µM. The “Erythro/Ec fold-change (intrinsic MIC / combination MIC)” value in the data set with E. coli ATCC 25922 [5] is 2 fold. Moreover, the “Erythro/Ec: concentration required” value with E. coli ATCC 25922 [5] came out at 120 µM. Besides, in [6], the IC50 at 20 h was more than 38 µM. Also, the “Hemolysis HC10” value in the data set on human red blood cells is given as more than 38 µM. Besides, the “MIC Kp” value in data set [7] was more than 38 µM.

As for `COc1cccc2c(C(=O)NCCCNCCCCCCCCCCNCCCNC(=O)c3c[nH]c4c(OC)cccc34)c[nH]c12.O=C(O)C(F)(F)F.O=C(O)C(F)(F)F` [Compound 17e], the MIC is 232 µM with S. aureus ATCC 25923; not above 0.29 µM in the data set on MRSA ATCC 43300; more than 232 µM with P. aeruginosa ATCC 27853 [1]; more than 232 µM in the data set on E. coli ATCC 25922 [2]; more than 37 µM against A. baumannii ATCC 19606; more than 37 µM in the data set with C. albicans ATCC 90028. The same compound displayed an MIC in data set [3] not above 0.29 µM. Further, the “Dox/Pa fold-change (intrinsic MIC / combination MIC)” value with P. aeruginosa ATCC 27853 [4] is more than 4 fold. Also, the “Dox/Pa: concentration required” value in the data set with P. aeruginosa ATCC 27853 [4] is listed as 58.1 µM. Moreover, the “Erythro/Ec fold-change (intrinsic MIC / combination MIC)” value with E. coli ATCC 25922 [5] amounted to 1 fold. In the data set on E. coli ATCC 25922 [5], the “Erythro/Ec: concentration required” value is listed as more than 232 µM. In addition, the IC50 at 20 h in data set [6] was more than 37 µM. Moreover, in the data set on human red blood cells, the “Hemolysis HC10” value is recorded as more than 37 µM. Further, the “MIC Kp” value in data set [7] is listed as more than 37 µM.

In the case of `COc1cccc2c(C(=O)NCCCNCCCCCCCCCCCCNCCCNC(=O)c3c[nH]c4c(OC)cccc34)c[nH]c12.O=C(O)C(F)(F)F.O=C(O)C(F)(F)F` [Compound 17f], the minimal inhibitory concentration (MIC) with S. aureus ATCC 25923 was 7.03 µM; in the data set on MRSA ATCC 43300 it was not above 0.28 µM; in the data set on P. aeruginosa ATCC 27853 [1], 225 µM; with E. coli ATCC 25922 [2] it was 28.1 µM; against A. baumannii ATCC 19606 it was more than 36 µM; in the data set with C. albicans ATCC 90028 it was 4.5 µM. The compound also yielded an MIC in data set [3] not above 0.28 µM. Further, in the data set with P. aeruginosa ATCC 27853 [4], the “Dox/Pa fold-change (intrinsic MIC / combination MIC)” value is 4 fold. In addition, the “Dox/Pa: concentration required” value with P. aeruginosa ATCC 27853 [4] turned out to be 56.2 µM. For the same compound, the “Erythro/Ec fold-change (intrinsic MIC / combination MIC)” value with E. coli ATCC 25922 [5] is recorded as 0.5 fold. In addition, the “Erythro/Ec: concentration required” value with E. coli ATCC 25922 [5] was 56.2 µM. In data set [6], the IC50 at 20 h was more than 36 µM. Moreover, in the data set on human red blood cells, the “Hemolysis HC10” value is more than 36 µM. In addition, the “MIC Kp” value in data set [7] is more than 36 µM.
